Data reported in patent publication US20260055081A1, “Metal Chelator Compounds, Coordination Complexes, and Methods of Preparation and Use Thereof” (University of Puerto Rico, priority 2022, published 2026).

Legend:
[1] = system: Jurkat Leukemia cell line; assay: Jurkat cell viability (MTT assay); type: cell-based; conditions: 72 h
Procedure: Jurkat cell culturing and cell viability studies. Jurkat cells are nonadherent cells, and they were cultured in an RPMI-1640 media (supplemented with 10% FBS (v/v) and 1% antibiotic solution (v/v) of penicillin/streptomycin) in non-tissue-culture treated 25 mL flasks according to the known protocol provided by the supplier ATCC. The cell passaging was done at 70% confluency by taking 3 mL of cells and diluting to 25 mL of fresh media. The cells were incubated at 37° C. in 5% CO2 atmosphere.
Jurkat cytotoxicity of DefNEtTrp (6), Def (5), NEtTrp (4), Trp, and 1:1 combinations of 5 with 4 and 5 with Trp was determined by the colorimetric 3-(4,5-dimethylthiazol-2-yl)-2,5-diphenyltetrazolium bromide (MTT) assay. Incubation conditions were the same in all the steps. Cells in 80-95% confluence (grown in standard circular tissue culture dishes, BD Falcon) were separately seeded into 96-well plates using phenol red free RPMI-1640 media (containing 10% FBS and 1% streptomycin/penicillin) in a volume of 50 μL at a concentration of 5.0×10^5 cells/mL. Following this procedure, the Jurkat cells were treated immediately. Stock solution of the compounds were first prepared in DMF at 5 mM and stored at 4° C. for up to 30 days. The stock solution was diluted to specific concentrations using 1×PBS (0.2-20 μM) while DMF was maintained at 1% (v/v). 50 μL of diluted solutions were added in all cell containing wells with at least six replicates per concentration (n=6). The final percentage (v/v) of DMF was 0.5%. The cells were also co-treated with 5 with 4 and 5 with Trp in a 1:1 mole equivalent ratio over the same concentration range but as a combined concentration of both compounds. Control wells in the plates consisted of one lane of cells treated with media alone including 0.5% DMF (v/v) as the measure of 100% viable cell growth in the media. Another control lane consisted of no cells with media including 0.5% DMF (v/v) as a measure of the background with no viable cells. The plates were incubated for 72 h. At 4 h before completion of the incubation time, 25 μL of MTT solution (sterile filtered 5 mg/mL solution, dissolved in 1×PBS buffer) was added to each well. During addition of the MTT solution, the plates were protected from light. After completion a 50 μL portion of 4% (w/v) SDS solution (sterile filtered, dissolved in Tris buffer 1M, pH=10) was added to each well and incubated to solubilize formazan crystals after MTT cell labeling. The absorbance of each well was measured at 570 nm (absorbance of the formazan product at pH >10.0) and 800 nm (as a background correction) using a Tecan plate reader. The absorbance of all wells was compared to the absorbance of the untreated cells with the MTT set as the 100% viable cell standard and the absorbance of the no cell control set as the 0% viable cell standard. Nonlinear regression in GraphPad Prism 8 was utilized to fit the growth curve over the various drug concentrations to determine the half-maximal inhibitory concentration (IC50). All cell viability experiments, including non-Jurkat cells, were repeated at least once for biological duplicates. To confirm cell death at the higher concentration dosages of the compounds and combinations, dead cells were blue stained with trypan blue and visually inspected under the microscope.

Jurkat cells = assay: Co-treatment with Q-VD-OPh and Fer-1, cell viability; type: cell-based, human; conditions: 10 μM Fer-1/Q-VD-OPh, treatment with 2 μM, 72 h
Procedure: FIG. 23 is a bar graph showing observed changes in the % cell viability of Jurkat cells treated with 10 μM Ferrastatin-1/Q-VD-OPh (Fer-1/Q-V-O) in combination and then treated for 72 h with 2 μM DefNetTrp (DNT), or media alone. * p-value <0.01 vs the corresponding non-treated Fer-1/Q-V-O group.

Colon cancer cell lines = assay: NCI 60 five-dose screen, colon panel; type: cell-based, human; conditions: 48 h
Procedure: National Cancer Institute Cancer Cell Line (NCI 60) Screen of DefNEtTrp. Details of the methodology for NCI 60 cell line screening are described at http://dtp.nci.nih.gov/branches/btb/ivclsp.html. The cells, grown in supplemented RPMI-1640 medium, are seeded in 96 well plates at an appropriate density and incubated for 24 h. The test compounds are dissolved in DMSO and incubated with cells at a single dose of 10.0 μM for 48 h. The assay is terminated by addition of cold trichloroacetic acid, and the cells are fixed and stained with sulforhodamine B. Bound stain is solubilized, and the absorbance is read on an automated plate reader. […] Using the seven absorbance measurements [time zero, […], control growth, (C), and test growth in the presence of drug at the five concentration levels (Tf)], the percentage growth was calculated at each of the drug concentrations levels as: [(Tf−Ti)/(C−Ti)]×100 for concentrations for which Tf≥Ti and [(Tf−Ti)/Ti]×100 for concentrations for which Tf<Ti. Three-dose response parameters (GI50, TGI, and LC50) were calculated for each of the experimental agents in five dose assay. […] The total growth inhibition (TGI) was calculated from Tf=Ti, which was the drug concentration resulting in total growth inhibition and signified the cytostatic effect. […]

## Nc1cccnc1/C=N/NC(=S)NCCNC(=O)c1ccc(-n2nc(-c3ccccc3O)nc2-c2ccccc2O)cc1 [DefNEtTrp, deferasirox nitrogen ethyl triapine]
[1]; Homo sapiens, Jurkat cell line, MTT
  IC50: 770 ± 60 nM
[1]; Jurkat
  cytotoxic effect compared with Def, NEtTrp and Trp in single drug and combination drug treatments: superior cytotoxic effect
Jurkat cells
  change in viability with equimolar Q-VD-OPh and Fer-1 co-treatment: three-fold increase in the viability
Colon cancer cell lines; cell lines in which TGI was observed
  TGI (calculated average): 12220 nM
Colon cancer cell lines; Homo sapiens, read-out: GI50 (calculated average)
  GI50: 870 nM
